What was measured:
[1] = molecular target: LIM domain kinase 2 (Homo sapiens) (UniProt P53671); test: Inhibition of human LIMK2 at 100 nM using cofilin as substrate by [gamma-33P]-ATP assay
[2] = molecular target: Serine/threonine-protein kinase WNK1 (Homo sapiens) (UniProt Q9H4A3); test: Inhibition of human WNK1 at 100 nM using MBP as substrate by [gamma-33P]-ATP assay
[3] = molecular target: Mitogen-activated protein kinase kinase kinase 21 (Homo sapiens) (UniProt Q5TCX8); test: Inhibition of human MLK4 at 100 nM using MEK1 as substrate by [gamma-33P]-ATP assay
[4] = molecular target: Hepatocyte growth factor receptor (Homo sapiens) (UniProt P08581); test: Inhibition of human c-MET at 100 nM using KKKSPGEYVNIEFG as substrate by [gamma-33P]-ATP assay
[5] = molecular target: Serine/threonine-protein kinase Nek4 (Homo sapiens) (UniProt P51957); test: Inhibition of human NEK4 at 100 nM using MBP as substrate by [gamma-33P]-ATP assay
[6] = molecular target: SRSF protein kinase 2 (Homo sapiens) (UniProt P78362); test: Inhibition of human SRPK2 at 100 nM using GRSRSRSRSR as substrate by [gamma-33P]-ATP assay
[7] = molecular target: Mitogen-activated protein kinase 15 (Homo sapiens) (UniProt Q8TD08); test: Inhibition of human ERK7 at 100 nM using MBP as substrate by [gamma-33P]-ATP assay
[8] = molecular target: Receptor tyrosine-protein kinase erbB-2 (Homo sapiens) (UniProt P04626); test: Inhibition of human ERBB2 at 100 nM using poly[Glu:Tyr] (4:1) as substrate by [gamma-33P]-ATP assay
[9] = molecular target: ALK tyrosine kinase receptor (Homo sapiens) (UniProt Q9UM73); test: Inhibition of human ALK at 100 nM using poly[Glu:Tyr] (4:1) as substrate by [gamma-33P]-ATP assay
[10] = molecular target: Serine/threonine-protein kinase SBK1 (Homo sapiens) (UniProt Q52WX2); test: Inhibition of human SBK1 at 100 nM using LCGRTGRRNSI as substrate by [gamma-33P]-ATP assay
[11] = molecular target: Serine/threonine-protein kinase B-raf (Homo sapiens) (UniProt P15056); test: Inhibition of human BRAF at 100 nM using MEK1 (K97R) as substrate by [gamma-33P]-ATP assay
[12] = molecular target: Cyclin-C/Cyclin-dependent kinase 19 (Homo sapiens) (UniProt Q9BWU1+P24863); test: Inhibition of human CDK19/cyclin-C at 100 nM using RB protein as substrate by [gamma-33P]-ATP assay; format: protein-complex assay
[13] = molecular target: Tyrosine-protein kinase SYK (Homo sapiens) (UniProt P43405); test: Inhibition of human SYK at 100 nM using poly[Glu:Tyr] (4:1) as substrate by [gamma-33P]-ATP assay
[14] = molecular target: Serine/threonine-protein kinase 16 (Homo sapiens) (UniProt O75716); test: Inhibition of human STK16 at 100 nM using MBP as substrate by [gamma-33P]-ATP assay
[15] = molecular target: Mitogen-activated protein kinase kinase kinase 1 (Homo sapiens) (UniProt Q13233); test: Inhibition of human MEKK1 at 100 nM using MBP as substrate by [gamma-33P]-ATP assay
[16] = molecular target: MAP/microtubule affinity-regulating kinase 4 (Homo sapiens) (UniProt Q96L34); test: Inhibition of human MARK4 at 100 nM using KKKVSRSGLYRSPSMPENLNRPR as substrate by [gamma-33P]-ATP assay
[17] = molecular target: Eukaryotic translation initiation factor 2-alpha kinase 1 (Homo sapiens) (UniProt Q9BQI3); test: Inhibition of human EIF2AK1 at 100 nM using MBP as substrate by [gamma-33P]-ATP assay
[18] = molecular target: STE20/SPS1-related proline-alanine-rich protein kinase (Homo sapiens) (UniProt Q9UEW8); test: Inhibition of human STK39 at 100 nM using MBP as substrate by [gamma-33P]-ATP assay
[19] = molecular target: Serine/threonine-protein kinase Nek2 (Homo sapiens) (UniProt P51955); test: Inhibition of human NEK2 at 100 nM using MBP as substrate by [gamma-33P]-ATP assay
[20] = molecular target: Serine/threonine-protein kinase WNK3 (Homo sapiens) (UniProt Q9BYP7); test: Inhibition of human WNK3 at 100 nM using MBP as substrate by [gamma-33P]-ATP assay
[21] = molecular target: Inactive tyrosine-protein kinase PEAK1 (Homo sapiens) (UniProt Q9H792); test: Inhibition of human PEAK1 at 100 nM using MBP as substrate by [gamma-33P]-ATP assay
[22] = molecular target: Maternal embryonic leucine zipper kinase (Homo sapiens) (UniProt Q14680); test: Inhibition of human MELK at 100 nM using KKLNRTLSFAEPG as substrate by [gamma-33P]-ATP assay
[23] = molecular target: Casein kinase II subunit alpha (Homo sapiens) (UniProt P68400); test: Inhibition of human CK2A at 100 nM using RRRDDDSDDD as substrate by [gamma-33P]-ATP assay
Homo sapiens = species: Homo sapiens; test: Inhibition of human AMPK (A1/B2/G1) at 100 nM using HMRSAMSGLHLVKRR as substrate by [gamma-33P]-ATP assay
[24] = molecular target: TRAF2 and NCK-interacting protein kinase (Homo sapiens) (UniProt Q9UKE5); test: Inhibition of human TNIK at 100 nM using RLGRDKYKTLRQIRQ as substrate by [gamma-33P]-ATP assay
[25] = molecular target: Serine/threonine-protein kinase pim-3 (Homo sapiens) (UniProt Q86V86); test: Inhibition of human PIM3 at 100 nM using RSRHSSYPAGT as substrate by [gamma-33P]-ATP assay
[26] = molecular target: Non-receptor tyrosine-protein kinase TYK2 (Homo sapiens) (UniProt P29597); test: Inhibition of human TYK2 at 100 nM using KKSRGDYMTMQIG as substrate by [gamma-33P]-ATP assay
[27] = molecular target: Ephrin type-A receptor 2 (Homo sapiens) (UniProt P29317); test: Inhibition of human EPHA2 at 100 nM using poly[Glu:Tyr] (4:1) as substrate by [gamma-33P]-ATP assay
[28] = molecular target: Serine/threonine-protein kinase SIK2 (Homo sapiens) (UniProt Q9H0K1); test: Inhibition of human SIK2 at 100 nM using AMARAASAAALARRR as substrate by [gamma-33P]-ATP assay
[29] = molecular target: RAF proto-oncogene serine/threonine-protein kinase (Homo sapiens) (UniProt P04049); test: Inhibition of human RAF1 at 100 nM using MEK1 as substrate by [gamma-33P]-ATP assay
[30] = molecular target: Cyclin-dependent kinase 14/Cyclin-Y (Homo sapiens) (UniProt O94921+Q8ND76); test: Inhibition of human CDK14/cyclin-Y at 100 nM using RB protein as substrate by [gamma-33P]-ATP assay; format: protein-complex assay

Chain of TRAF2 and NCK-interacting protein kinase (Homo sapiens) (Q9UKE5 whole entry, looked up): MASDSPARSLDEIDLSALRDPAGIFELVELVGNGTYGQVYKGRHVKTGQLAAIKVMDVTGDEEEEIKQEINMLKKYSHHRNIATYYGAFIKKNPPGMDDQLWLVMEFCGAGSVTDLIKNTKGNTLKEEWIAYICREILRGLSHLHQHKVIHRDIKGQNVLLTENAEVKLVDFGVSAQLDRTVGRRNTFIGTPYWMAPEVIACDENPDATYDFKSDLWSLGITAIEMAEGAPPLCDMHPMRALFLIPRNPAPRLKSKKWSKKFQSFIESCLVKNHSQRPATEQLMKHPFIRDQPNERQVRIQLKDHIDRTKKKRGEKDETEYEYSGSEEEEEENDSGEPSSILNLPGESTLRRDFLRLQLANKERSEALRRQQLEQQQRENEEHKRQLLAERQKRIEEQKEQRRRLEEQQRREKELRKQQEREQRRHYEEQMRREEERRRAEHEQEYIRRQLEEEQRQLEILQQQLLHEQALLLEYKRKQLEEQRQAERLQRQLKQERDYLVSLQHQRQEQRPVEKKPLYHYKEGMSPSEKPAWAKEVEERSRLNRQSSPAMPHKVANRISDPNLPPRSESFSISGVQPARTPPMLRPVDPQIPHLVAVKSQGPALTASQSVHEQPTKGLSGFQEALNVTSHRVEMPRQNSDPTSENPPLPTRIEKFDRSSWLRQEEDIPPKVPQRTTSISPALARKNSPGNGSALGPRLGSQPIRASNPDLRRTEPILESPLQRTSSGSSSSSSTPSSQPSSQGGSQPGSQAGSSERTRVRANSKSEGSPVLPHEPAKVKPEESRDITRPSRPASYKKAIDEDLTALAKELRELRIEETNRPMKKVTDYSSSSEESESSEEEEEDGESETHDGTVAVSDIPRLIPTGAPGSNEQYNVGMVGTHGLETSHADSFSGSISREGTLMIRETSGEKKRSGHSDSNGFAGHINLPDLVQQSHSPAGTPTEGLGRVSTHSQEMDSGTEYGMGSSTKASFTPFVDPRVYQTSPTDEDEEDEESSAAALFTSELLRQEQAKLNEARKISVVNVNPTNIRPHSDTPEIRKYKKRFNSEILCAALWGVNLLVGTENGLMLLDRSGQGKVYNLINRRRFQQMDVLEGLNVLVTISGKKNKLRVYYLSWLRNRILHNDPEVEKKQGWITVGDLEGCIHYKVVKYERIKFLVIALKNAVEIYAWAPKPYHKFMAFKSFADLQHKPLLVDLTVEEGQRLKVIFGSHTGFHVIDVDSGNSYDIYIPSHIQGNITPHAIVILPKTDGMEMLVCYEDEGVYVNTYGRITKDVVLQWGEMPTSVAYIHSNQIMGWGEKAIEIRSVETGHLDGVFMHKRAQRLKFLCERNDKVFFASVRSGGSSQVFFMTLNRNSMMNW
Chain of Ephrin type-A receptor 2 (Homo sapiens) (P29317 whole entry): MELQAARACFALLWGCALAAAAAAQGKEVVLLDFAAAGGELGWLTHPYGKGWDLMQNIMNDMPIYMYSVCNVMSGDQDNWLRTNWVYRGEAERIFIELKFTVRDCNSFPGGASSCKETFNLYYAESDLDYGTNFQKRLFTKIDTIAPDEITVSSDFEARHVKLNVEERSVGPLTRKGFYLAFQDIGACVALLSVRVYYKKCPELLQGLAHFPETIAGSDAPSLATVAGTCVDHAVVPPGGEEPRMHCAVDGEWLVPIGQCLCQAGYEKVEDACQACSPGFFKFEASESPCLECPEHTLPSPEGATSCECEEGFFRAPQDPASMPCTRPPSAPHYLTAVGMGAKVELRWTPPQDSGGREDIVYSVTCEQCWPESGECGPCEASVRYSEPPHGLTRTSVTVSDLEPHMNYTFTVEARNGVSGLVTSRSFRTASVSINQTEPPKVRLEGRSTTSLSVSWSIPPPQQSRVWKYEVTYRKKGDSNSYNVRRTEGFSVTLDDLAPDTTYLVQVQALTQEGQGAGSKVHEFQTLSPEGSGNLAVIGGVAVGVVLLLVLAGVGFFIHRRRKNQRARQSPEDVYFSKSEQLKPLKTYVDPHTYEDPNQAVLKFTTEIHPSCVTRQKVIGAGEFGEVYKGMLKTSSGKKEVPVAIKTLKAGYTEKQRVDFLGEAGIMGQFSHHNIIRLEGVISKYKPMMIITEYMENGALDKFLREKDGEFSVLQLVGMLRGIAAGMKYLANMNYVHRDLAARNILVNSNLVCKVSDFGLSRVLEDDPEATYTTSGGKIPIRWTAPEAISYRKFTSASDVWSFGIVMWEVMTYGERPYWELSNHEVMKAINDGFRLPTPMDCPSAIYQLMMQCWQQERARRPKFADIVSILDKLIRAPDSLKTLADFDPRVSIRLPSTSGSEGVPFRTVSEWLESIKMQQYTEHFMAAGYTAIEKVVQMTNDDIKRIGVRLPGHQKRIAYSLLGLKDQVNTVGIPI
Chain of Casein kinase II subunit alpha (Homo sapiens) (P68400 whole entry, looked up): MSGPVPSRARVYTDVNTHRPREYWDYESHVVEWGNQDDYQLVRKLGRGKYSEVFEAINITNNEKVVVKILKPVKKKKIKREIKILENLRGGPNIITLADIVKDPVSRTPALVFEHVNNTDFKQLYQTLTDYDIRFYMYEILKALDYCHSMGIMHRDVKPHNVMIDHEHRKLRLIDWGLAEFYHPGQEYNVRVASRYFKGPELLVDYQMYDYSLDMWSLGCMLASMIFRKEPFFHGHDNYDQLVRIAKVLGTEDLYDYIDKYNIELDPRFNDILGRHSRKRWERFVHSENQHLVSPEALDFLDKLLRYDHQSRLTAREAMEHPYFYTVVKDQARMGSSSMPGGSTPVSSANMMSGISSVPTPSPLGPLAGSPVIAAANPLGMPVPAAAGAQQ
Chain of MAP/microtubule affinity-regulating kinase 4 (Homo sapiens) (Q96L34 whole entry): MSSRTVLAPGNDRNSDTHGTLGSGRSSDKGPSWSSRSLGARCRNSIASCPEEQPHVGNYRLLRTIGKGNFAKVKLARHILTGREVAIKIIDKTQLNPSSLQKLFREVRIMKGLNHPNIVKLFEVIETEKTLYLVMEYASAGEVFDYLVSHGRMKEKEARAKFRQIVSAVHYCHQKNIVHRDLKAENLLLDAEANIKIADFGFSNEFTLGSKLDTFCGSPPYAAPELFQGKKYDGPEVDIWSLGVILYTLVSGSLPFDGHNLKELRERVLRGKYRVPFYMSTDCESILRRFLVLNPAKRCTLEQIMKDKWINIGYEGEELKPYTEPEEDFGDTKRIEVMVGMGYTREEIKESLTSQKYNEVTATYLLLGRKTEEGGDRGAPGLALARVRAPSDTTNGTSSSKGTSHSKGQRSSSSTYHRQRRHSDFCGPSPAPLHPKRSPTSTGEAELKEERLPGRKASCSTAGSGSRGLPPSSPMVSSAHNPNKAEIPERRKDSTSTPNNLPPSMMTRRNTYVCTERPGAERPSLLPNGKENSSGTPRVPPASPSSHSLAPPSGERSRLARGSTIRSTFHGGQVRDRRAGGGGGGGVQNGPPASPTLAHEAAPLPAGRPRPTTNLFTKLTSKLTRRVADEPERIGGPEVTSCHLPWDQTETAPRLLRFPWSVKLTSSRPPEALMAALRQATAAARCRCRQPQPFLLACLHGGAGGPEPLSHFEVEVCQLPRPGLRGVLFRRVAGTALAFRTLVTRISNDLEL
Chain of Receptor tyrosine-protein kinase erbB-2 (Homo sapiens) (P04626 whole entry): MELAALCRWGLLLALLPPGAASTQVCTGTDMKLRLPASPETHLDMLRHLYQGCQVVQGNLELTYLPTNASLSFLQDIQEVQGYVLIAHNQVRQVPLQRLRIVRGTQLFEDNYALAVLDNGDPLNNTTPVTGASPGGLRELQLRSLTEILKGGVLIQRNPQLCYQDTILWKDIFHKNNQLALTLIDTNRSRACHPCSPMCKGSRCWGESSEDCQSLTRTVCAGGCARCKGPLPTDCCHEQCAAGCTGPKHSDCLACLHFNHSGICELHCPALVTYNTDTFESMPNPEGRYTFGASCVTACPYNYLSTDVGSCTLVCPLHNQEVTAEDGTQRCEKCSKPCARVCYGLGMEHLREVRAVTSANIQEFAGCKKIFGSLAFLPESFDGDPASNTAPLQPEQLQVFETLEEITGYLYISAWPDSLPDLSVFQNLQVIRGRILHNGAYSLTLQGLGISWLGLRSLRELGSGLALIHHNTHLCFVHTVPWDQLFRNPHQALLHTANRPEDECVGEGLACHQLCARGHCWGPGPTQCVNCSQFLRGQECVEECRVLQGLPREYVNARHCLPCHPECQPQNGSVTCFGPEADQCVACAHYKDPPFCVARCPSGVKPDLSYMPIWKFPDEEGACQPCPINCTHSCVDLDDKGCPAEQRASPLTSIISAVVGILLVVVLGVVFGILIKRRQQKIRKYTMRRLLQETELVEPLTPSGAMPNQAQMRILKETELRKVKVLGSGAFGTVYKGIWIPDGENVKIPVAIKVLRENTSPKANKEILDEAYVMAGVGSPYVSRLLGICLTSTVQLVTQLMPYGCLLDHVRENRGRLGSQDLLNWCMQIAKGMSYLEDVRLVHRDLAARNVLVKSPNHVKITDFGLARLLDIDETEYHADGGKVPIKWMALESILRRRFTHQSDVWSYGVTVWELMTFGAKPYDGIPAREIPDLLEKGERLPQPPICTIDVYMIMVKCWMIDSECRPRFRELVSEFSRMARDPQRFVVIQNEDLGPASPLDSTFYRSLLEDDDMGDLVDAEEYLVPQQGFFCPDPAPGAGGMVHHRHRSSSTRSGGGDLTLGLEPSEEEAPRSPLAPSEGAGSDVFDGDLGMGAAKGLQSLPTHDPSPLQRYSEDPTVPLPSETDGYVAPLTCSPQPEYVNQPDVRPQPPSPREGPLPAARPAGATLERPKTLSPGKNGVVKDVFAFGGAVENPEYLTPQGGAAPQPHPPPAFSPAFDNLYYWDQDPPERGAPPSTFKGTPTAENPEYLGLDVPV

For `COc1ccc(N2C(=O)COc3ccc(-c4cnc(OC)c(NS(=O)(=O)c5ccc(F)cc5)c4)cc32)cc1`, which inhibition [1] is on record?
The inhibition was 2.98%.

What about the inhibition [2] of the same compound?
Its inhibition is 13.9%.

And the inhibition [3]?
Its inhibition is 5.78%.

And the inhibition [4]?
The inhibition was -7.9%.

What about the inhibition [5] of the same compound?
Its inhibition is -6.56%.

What about the inhibition [6] of the same compound?
The inhibition was -0.24%.

What about the inhibition [7] of the same compound?
Its inhibition is -4.54%.

And the inhibition [8]?
The inhibition was 3.37%.

And the inhibition [9]?
Its inhibition is 2.94%.

What about the inhibition [10] of the same compound?
Its inhibition is 7.68%.

And the inhibition [11]?
The inhibition was 5.74%.

And the inhibition [12]?
The inhibition was 4.5%.

What about the inhibition [13] of the same compound?
The inhibition was 3.43%.

What about the inhibition [14] of the same compound?
Its inhibition is -2.3%.

And the inhibition [15]?
Its inhibition is 6.33%.

What about the inhibition [16] of the same compound?
Its inhibition is 1.56%.

What about the inhibition [17] of the same compound?
The inhibition was 3.42%.

And the inhibition [18]?
Its inhibition is 10%.

And the inhibition [19]?
Its inhibition is 20.4%.

And the inhibition [20]?
Its inhibition is -0.32%.

And the inhibition [21]?
The inhibition was 4.84%.

And the inhibition [22]?
The inhibition was 9.78%.

What about the inhibition [23] of the same compound?
The inhibition was 12.7%.

What about the inhibition (Homo sapiens) of the same compound?
The inhibition was -4.96%.

What about the inhibition [24] of the same compound?
The inhibition was 15.6%.

What about the inhibition [25] of the same compound?
The inhibition was -9.8%.

What about the inhibition [26] of the same compound?
The inhibition was 11.3%.

And the inhibition [27]?
Its inhibition is 19.2%.

And the inhibition [28]?
The inhibition was -3.42%.

And the inhibition [29]?
The inhibition was -0.03%.

What about the inhibition [30] of the same compound?
Its inhibition is 4.76%.
